Reference: the NIST ThermoML archive (doi:10.1016/j.tca.2008.09.006)

Experiment: xn = mol fraction of the nth substance listed
Conditions: 303.15 K, 101 kPa, Liquid; for viscosity: Capillary tube (Ostwald / Ubbelohde) method; for mass density: Vibrating tube method

CCCO [propan-1-ol] + CCCCN(CCCC)CCCC
x2 = 0
Conditions	mass density [kg/m3]	viscosity [mPa·s]
–	795.66	1.727

CCCO [propan-1-ol] + CCN(CC)CC
x2 = 0
Conditions	mass density [kg/m3]	viscosity [mPa·s]
–	795.66	1.727

CCCCN(CCCC)CCCC [tributylamine] + CCCO
Conditions	mass density [kg/m3]	viscosity [mPa·s]
x1 = 0.0986	791.71	1.695
x1 = 0.1991	788.31	1.66
x1 = 0.2978	785.47	1.619
x1 = 0.4984	780.18	1.514
x1 = 0.5992	777.82	1.449
x1 = 0.6031	777.75	1.445
x1 = 0.6981	775.71	1.378
x1 = 0.7989	773.78	1.302
x1 = 0.8988	771.94	1.233
x1 = 1	770.39	1.167

C1CCCCC1 [cyclohexane] + CCCO
Conditions	mass density [kg/m3]	viscosity [mPa·s]
x2 = 0	769.16	0.819
x2 = 0.1021	769.52	0.832
x2 = 0.2112	770.68	0.872
x2 = 0.3122	772.37	0.922
x2 = 0.4211	774.63	0.986
x2 = 0.5151	776.9	1.053
x2 = 0.6203	779.94	1.148
x2 = 0.7208	783.15	1.264
x2 = 0.8143	786.73	1.398
x2 = 0.9079	790.83	1.555

C1CCCCC1 [cyclohexane] + CCCCN(CCCC)CCCC
x2 = 0
Conditions	mass density [kg/m3]	viscosity [mPa·s]
–	769.16	0.819

CCCCN(CCCC)CCCC [tributylamine] + C1CCCCC1
Conditions	mass density [kg/m3]	viscosity [mPa·s]
x1 = 0.1023	768.32	0.848
x1 = 0.2014	768.09	0.878
x1 = 0.3008	768.17	0.914
x1 = 0.4016	768.42	0.947
x1 = 0.5002	768.78	0.985
x1 = 0.6018	769.15	1.025
x1 = 0.7021	769.57	1.058
x1 = 0.8012	769.85	1.096
x1 = 0.9024	770.12	1.13
x1 = 1	770.39	1.167

C1CCCCC1 [cyclohexane] + CCN(CC)CC
x2 = 0
Conditions	mass density [kg/m3]	viscosity [mPa·s]
–	769.16	0.819

CCCO [propan-1-ol] + C1CCCCC1
x1 = 1
Conditions	mass density [kg/m3]	viscosity [mPa·s]
–	795.66	1.727

CCN(CC)CC [triethylamine] + C1CCCCC1
Conditions	mass density [kg/m3]	viscosity [mPa·s]
x1 = 0.0995	761.78	0.697
x1 = 0.1947	755.57	0.614
x1 = 0.291	749.84	0.548
x1 = 0.3963	744.18	0.495
x1 = 0.4999	739.03	0.453
x1 = 0.5961	734.6	0.42
x1 = 0.6989	730.17	0.392
x1 = 0.7968	726.09	0.374
x1 = 0.8973	722.21	0.348
x1 = 1	718.45	0.33

CCN(CC)CC [triethylamine] + CCCO
Conditions	mass density [kg/m3]	viscosity [mPa·s]
x1 = 0.2007	783.21	1.189
x1 = 0.295	775.99	1.007
x1 = 0.3226	773.73	0.954
x1 = 0.393	767.95	0.845
x1 = 0.4852	760.11	0.719
x1 = 0.6128	749.28	0.574
x1 = 0.7308	739.53	0.47
x1 = 0.7637	736.85	0.444
x1 = 0.8776	727.89	0.375
x1 = 1	718.45	0.33
